The record followed here is US20260217735A1, “HETEROCYCLES AND USES THEREOF” (Kumquat Biosciences Inc., priority 2023, published 2026).

Structures are written as SMILES.

Test [1] has as its target T1, KRAS G12D (Homo sapiens, UniProt P01116, G12D).
T1 construct: made in house; host or cells: E. coli, e.g. BL21 (DE3)
The test can be described thus: HTRF assay, KRAS G12D interaction with SOS1. It counts as biochemical. The conditions noted are these: bins <500 nM / 500 nM to 1000 nM, read-out: Inhibition of KRAS G12D (IC50). (In general: TR-FRET usually uses a lanthanide donor and a delayed reading to cut background.)

The target in test [2] is T2, KRAS WT (Homo sapiens, UniProt P01116).
T2 construct: made in house; host or cells: E. coli, e.g. BL21 (DE3)
T2 sequence (P01116 1-188 isoform P01116-2): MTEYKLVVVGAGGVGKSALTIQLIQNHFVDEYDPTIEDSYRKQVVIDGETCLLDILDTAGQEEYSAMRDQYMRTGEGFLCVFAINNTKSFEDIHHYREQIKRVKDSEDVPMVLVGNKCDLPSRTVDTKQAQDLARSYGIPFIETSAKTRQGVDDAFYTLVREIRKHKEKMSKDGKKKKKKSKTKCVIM
The test can be described thus: HTRF assay, wildtype KRAS interaction with SOS1. It counts as biochemical. The conditions noted are these: bins <500 nM / 500 nM to 1000 nM, read-out: Inhibition of KRAS WT (IC50).

The target in test [3] is T3, KRAS G12V (Homo sapiens, UniProt P01116, G12V).
T3 construct: made in house; host or cells: E. coli, e.g. BL21 (DE3)
T3 sequence (P01116 1-188 isoform P01116-2 G12V): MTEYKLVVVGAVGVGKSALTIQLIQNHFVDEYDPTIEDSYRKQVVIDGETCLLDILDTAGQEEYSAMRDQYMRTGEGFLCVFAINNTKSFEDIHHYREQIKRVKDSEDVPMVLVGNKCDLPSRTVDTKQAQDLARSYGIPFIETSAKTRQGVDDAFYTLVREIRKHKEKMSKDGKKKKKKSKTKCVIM
Kind of test: HTRF assay, KRAS G12V interaction with SOS1. It counts as biochemical. The conditions noted are these: bins <500 nM / 500 nM to 1000 nM, read-out: Inhibition of KRAS G12V (IC50).

In test [4] the target is T4, KRAS G12S (Homo sapiens, UniProt P01116, G12S).
T4 construct: made in house; host or cells: E. coli, e.g. BL21 (DE3)
T4 sequence (P01116 1-188 isoform P01116-2 G12S): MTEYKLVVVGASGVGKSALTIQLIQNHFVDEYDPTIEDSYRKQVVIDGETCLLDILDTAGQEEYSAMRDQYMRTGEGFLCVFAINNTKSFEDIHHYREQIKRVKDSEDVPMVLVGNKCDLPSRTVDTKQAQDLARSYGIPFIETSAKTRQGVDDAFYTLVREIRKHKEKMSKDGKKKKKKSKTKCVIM
Kind of test: HTRF assay, KRAS G12S interaction with SOS1. It counts as biochemical. The conditions noted are these: bins <500 nM / 500 nM to 1000 nM, read-out: Inhibition of KRAS G12S (IC50).

The subject of test [5] is MiaPaca2 cells. Kind of test: Ras cellular assay, growth of cells with K-Ras G12C mutation. It counts as cell-based. The conditions noted are these: Homo sapiens, MIA PaCa-2; cell proliferation assay; bins ≤500 nM / >500 nM; read-out: Inhibition of MiaPaca2 Cells (IC50). The method in brief: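 Anchorage-independent growth: G12C-mutant MIA PaCa-2 plated in soft agar, time-zero plate read the next day when compound was dosed (final DMSO 0.3%). After growth to day 10, MTS-type absorbance at 490/660 nm relative to time zero gave IC50 via four-parameter fitting.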

T1 sequence (P01116 1-188 isoform P01116-2 G12D): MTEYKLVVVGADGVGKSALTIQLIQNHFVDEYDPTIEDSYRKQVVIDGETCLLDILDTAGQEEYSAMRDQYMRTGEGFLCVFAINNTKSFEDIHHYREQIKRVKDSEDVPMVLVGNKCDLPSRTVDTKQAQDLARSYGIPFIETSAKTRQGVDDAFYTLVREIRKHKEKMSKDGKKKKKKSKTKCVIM

Usually IC50 stands for the point on the concentration scale where inhibition reaches its midpoint. As to `Cc1cn(C(=O)N2CC3(CCCCN(c4nc(OC[C@@]56CCCN5C[C@H](F)C6)nc5c(F)c(-c6ccc(F)c7sc(N)c(C#N)c67)c(Cl)cc45)C3)C2)c(C)n1` [Compound 138, 2-amino-4-(6-chloro-4-(2-(2,4-dimethyl-1H-imidazole-1-carbonyl)-2,6-diazaspiro[3.6]decan-6-yl)-8-fluoro-2-(((2R,7aS)-2-fluorotetrahydro-1H-pyrrolizin-7a(5H)-yl)methoxy)quinazolin-7-yl)-7-fluorobenzo[b]thiophene-3-carbonitrile], the IC50 in test [1] was below 500 nM; in test [2], below 500 nM; in test [3], below 500 nM; in test [4] it was below 500 nM; in test [5], at most 500 nM.
As for `CCN(c1nc(OC[C@@]23CCCN2C[C@H](F)C3)nc2c(F)c(-c3ccc(F)c4sc(N)c(C#N)c34)c(C(F)(F)F)cc12)[C@@H]1CCN(C(=O)n2cnc(C#N)c2C)[C@@H]1C` [Compound 139, 1-((2R,3R)-3-((7-(2-amino-3-cyano-7-fluorobenzo[b]thiophen-4-yl)-8-fluoro-2-(((2R,7aS)-2-fluorotetrahydro-1H-pyrrolizin-7a(5H)-yl)methoxy)-6-(trifluoromethyl)quinazolin-4-yl)(ethyl)amino)-2-methylpyrrolidine-1-carbonyl)-5-methyl-1H-imidazole-4-carbonitrile], the IC50 in test [1] was below 500 nM; in test [2] it was below 500 nM; in test [3] it was below 500 nM; in test [4], below 500 nM; in test [5] it was at most 500 nM.
On to `Cc1ncn(C(=O)N2CC3CCN(c4nc(OC[C@@]56CCCN5C[C@H](F)C6)nc5c(F)c(-c6ccc(F)c7sc(N)c(C#N)c67)c(Cl)cc45)C3C2)c1C` (stereo partly drawn) [Compound 140, 2-amino-4-(6-chloro-4-(5-(4,5-dimethyl-1H-imidazole-1-carbonyl)hexahydropyrrolo[3,4-b]pyrrol-1(2H)-yl)-8-fluoro-2-(((2R,7aS)-2-fluorotetrahydro-1H-pyrrolizin-7a(5H)-yl)methoxy)quinazolin-7-yl)-7-fluorobenzo[b]thiophene-3-carbonitrile], for which the half-inhibitory concentration (IC50) was below 500 nM in test [1]; below 500 nM in test [2]; below 500 nM in test [3]; below 500 nM in test [4]; at most 500 nM in test [5].
Regarding `Cc1c(C#N)ncn1C(=O)N1CC[C@@H](N(C)c2nc(OC[C@@]34CCCN3C[C@H](F)C4)nc3c(F)c(-c4ccc(F)c5sc(N)c(C#N)c45)c(Cl)cc23)[C@H]1C` [Compound 141, 1-((2R,3R)-3-((7-(2-amino-3-cyano-7-fluorobenzo[b]thiophen-4-yl)-6-chloro-8-fluoro-2-(((2R,7aS)-2-fluorotetrahydro-1H-pyrrolizin-7a(5H)-yl)methoxy)quinazolin-4-yl)(methyl)amino)-2-methylpyrrolidine-1-carbonyl)-5-methyl-1H-imidazole-4-carbonitrile], the IC50 in test [1] was below 500 nM; in test [2], below 500 nM; in test [3], below 500 nM; in test [4], below 500 nM; in test [5], at most 500 nM.
With `Cc1cn(C(=O)N2CC[C@@H](N(C)c3nc(OC[C@@]45CCCN4C[C@H](F)C5)nc4c(F)c(-c5ccc(F)c6sc(N)c(C#N)c56)c(Cl)cc34)[C@H]2C)cn1` [Compound 144, 2-amino-4-(6-chloro-8-fluoro-2-(((2R,7aS)-2-fluorotetrahydro-1H-pyrrolizin-7a(5H)-yl)methoxy)-4-(methyl((2R,3R)-2-methyl-1-(4-methyl-1H-imidazole-1-carbonyl)pyrrolidin-3-yl)amino)quinazolin-7-yl)-7-fluorobenzo[b]thiophene-3-carbonitrile], the IC50 in test [1] was below 500 nM; in test [2] it was below 500 nM; in test [3], below 500 nM; in test [4], below 500 nM; in test [5], at most 500 nM.
Turning to `CCN(c1nc(OC[C@@]23CCCN2C[C@H](F)C3)nc2c(F)c(-c3ccc(F)c4sc(N)c(C#N)c34)c(Cl)cc12)[C@@H]1CCN(C(=O)n2cnc(C)c2C)[C@@H]1C` [Compound 145, 2-amino-4-(6-chloro-4-(((2R,3R)-1-(4,5-dimethyl-1H-imidazole-1-carbonyl)-2-methylpyrrolidin-3-yl)(ethyl)amino)-8-fluoro-2-(((2R,7aS)-2-fluorotetrahydro-1H-pyrrolizin-7a(5H)-yl)methoxy)quinazolin-7-yl)-7-fluorobenzo[b]thiophene-3-carbonitrile], the IC50 in test [1] was below 500 nM; in test [2], below 500 nM; in test [3], below 500 nM; in test [4] it was below 500 nM; in test [5], at most 500 nM.
Turning to `Cc1ncn(C(=O)N2CC[C@@]23CCN(c2nc(OC[C@@]45CCCN4C[C@H](F)C5)nc4c(F)c(-c5ccc(F)c6sc(N)c(C#N)c56)c(Cl)cc24)C3)c1C` [Compound 147, 2-amino-4-(6-chloro-4-((R)-1-(4,5-dimethyl-1H-imidazole-1-carbonyl)-1,6-diazaspiro[3.4]octan-6-yl)-8-fluoro-2-(((2R,7aS)-2-fluorotetrahydro-1H-pyrrolizin-7a(5H)-yl)methoxy)quinazolin-7-yl)-7-fluorobenzo[b]thiophene-3-carbonitrile], the IC50 is below 500 nM in test [1]; below 500 nM in test [2]; below 500 nM in test [3]; below 500 nM in test [4]; at most 500 nM in test [5].
`CCN(c1nc(OC[C@@]23CCCN2C[C@H](F)C3)nc2c(F)c(-c3ccc(F)c4sc(N)c(C#N)c34)c(C(F)(F)F)cc12)[C@@H]1CCN(C(=O)n2ccnc2C)[C@@H]1C` [Compound 148, 2-amino-4-(4-(ethyl((2R,3R)-2-methyl-1-(2-methyl-1H-imidazole-1-carbonyl)pyrrolidin-3-yl)amino)-8-fluoro-2-(((2R,7aS)-2-fluorotetrahydro-1H-pyrrolizin-7a(5H)-yl)methoxy)-6-(trifluoromethyl)quinazolin-7-yl)-7-fluorobenzo[b]thiophene-3-carbonitrile]: the IC50 in test [1] is below 500 nM; in test [2], below 500 nM; in test [3], below 500 nM; in test [4] it was below 500 nM; in test [5], at most 500 nM.
Consider `CCN(c1nc(OC[C@@]23CCCN2C[C@H](F)C3)nc2c(F)c(-c3ccc(F)c4sc(N)c(C#N)c34)c(Cl)cc12)[C@@H]1CCN(C(=O)n2cnc(C#N)c2C)[C@@H]1C` [Compound 149, 1-((2R,3R)-3-((7-(2-amino-3-cyano-7-fluorobenzo[b]thiophen-4-yl)-6-chloro-8-fluoro-2-(((2R,7aS)-2-fluorotetrahydro-1H-pyrrolizin-7a(5H)-yl)methoxy)quinazolin-4-yl)(ethyl)amino)-2-methylpyrrolidine-1-carbonyl)-5-methyl-1H-imidazole-4-carbonitrile], for which the IC50 in test [1] is below 500 nM; in test [2] it was below 500 nM; in test [3] it was below 500 nM; in test [4], below 500 nM; in test [5], at most 500 nM.
On to `Cc1cn(C(=O)N(C)C2CN(c3nc(OC[C@@]45CCCN4C[C@H](F)C5)nc4c(F)c(-c5ccc(F)c6sc(N)c(C#N)c56)c(Cl)cc34)CC2F)cn1` (stereo partly drawn) [Compound 151, N-(1-((R)-7-(2-amino-3-cyano-7-fluorobenzo[b]thiophen-4-yl)-6-chloro-8-fluoro-2-(((2R,7aS)-2-fluorotetrahydro-1H-pyrrolizin-7a(5H)-yl)methoxy)quinazolin-4-yl)-4-fluoropyrrolidin-3-yl)-N,4-dimethyl-1H-imidazole-1-carboxamide], for which the IC50 in test [1] was below 500 nM; in test [2], below 500 nM; in test [3] it was below 500 nM; in test [4], below 500 nM; in test [5], at most 500 nM.
Regarding `CC[C@H]1N(C(=O)n2cnc(C#N)c2C)C[C@]12CCCCN(c1nc(OC[C@@]34CCCN3C[C@H](F)C4)nc3c(F)c(-c4ccc(F)c5sc(N)c(C#N)c45)c(Cl)cc13)C2` [Compound 152, 1-((1R,4R)-6-(7-(2-amino-3-cyano-7-fluorobenzo[b]thiophen-4-yl)-6-chloro-8-fluoro-2-(((2R,7aS)-2-fluorotetrahydro-1H-pyrrolizin-7a(5H)-yl)methoxy)quinazolin-4-yl)-1-ethyl-2,6-diazaspiro[3.6]decane-2-carbonyl)-5-methyl-1H-imidazole-4-carbonitrile], the IC50 was below 500 nM in test [1]; below 500 nM in test [2]; below 500 nM in test [3]; below 500 nM in test [4]; at most 500 nM in test [5].
As for `Cc1nccn1C(=O)N1CC2(CCCCN(c3nc(OC[C@@]45CCCN4C[C@H](F)C5)nc4c(F)c(-c5ccc(F)c6sc(N)c(C#N)c56)c(Cl)cc34)C2)C1` [Compound 154, 2-amino-4-(6-chloro-8-fluoro-2-(((2R,7aS)-2-fluorotetrahydro-1H-pyrrolizin-7a(5H)-yl)methoxy)-4-(2-(2-methyl-1H-imidazole-1-carbonyl)-2,6-diazaspiro[3.6]decan-6-yl)quinazolin-7-yl)-7-fluorobenzo[b]thiophene-3-carbonitrile], the 50% inhibitory concentration (IC50) in test [1] was below 500 nM; in test [2], below 500 nM; in test [3], below 500 nM; in test [4], below 500 nM; in test [5], at most 500 nM.
